In one experiment the test system is A. baumannii ATCC 19606. The class given is cell-based, Acinetobacter baumannii. How it is done: (§1) The minimum inhibitory concentration (MIC) of the Feleucin-K3 analogs was tested by the broth microdilution method. Sensitive bacteria and drug-resistant bacteria were diluted to 1 × 10^6 CFU/mL, according to the McFarland standards. Bacterial suspension and peptide solutions (8–128 μg/mL) were incubated at 37 °C for 18 h. The minimum concentration without obvious bacterial growth was the MIC of the peptides. The stability of the analogs in a physiological salt environment was also investigated. In brief, salt powder (450-mM NaCl) was dissolved in deionized water, and the following investigational steps were the same as those described before. The above steps were repeated several times, until the same value was obtained three times.

For a further experiment, the system named is S. aureus ATCC 25923. The class given is cell-based, Staphylococcus aureus. On the procedure:
as §1

For a further experiment, the system named is P. aeruginosa ATCC 27853. The class given is cell-based, Pseudomonas aeruginosa. On the procedure:
as §1

The test system of another experiment is E. coli ATCC 25922. Type of experiment: cell-based. How it is done: as §1
Setting [1] is: broth microdilution, 1 × 10^6 CFU/mL, 37 °C, 18 h.

In brackets after ≈: the same amount, converted by molar mass. Like-named read-outs stand apart in the source and are kept apart here. Square brackets hold non-standard residues; d marks the D form. Ends that are not written are not given here. Peptide text beside a SMILES is read from it. ξ: configuration not given here. ξαMeGly(pent-4-enyl) = C=CCCCC(C)(N)C(=O)O

With `C=CCCCC(C)(NC(=O)[C@H](CCCCN)NC(=O)[C@@H](N)CC(C)C)C(=O)N[C@@H](CC(C)C)C(=O)N[C@@H](CCCCN)C(=O)N[C@@H](CCCCN)C(=O)N[C@@H](CC(C)C)C(=O)N[C@@H](CC(C)C)C(N)=O` (stereo partly drawn) [Feleucin-K64] (H-LK[ξαMeGly(pent-4-enyl)]LKKLL-NH2), the “MIC, A. baumannii ATCC 19606” value against A. baumannii ATCC 19606 (ATCC 19606, 18 h) is 64 µg/mL (≈ 64.4 µM). Besides, in the experiment with S. aureus ATCC 25923 (ATCC 25923, 18 h), the “MIC, S. aureus ATCC 25923” value amounted to 16 µg/mL (≈ 16.1 µM). Besides, the “MIC, P. aeruginosa ATCC 27853” value in the experiment on P. aeruginosa ATCC 27853 (ATCC 27853, 18 h) amounted to 4 µg/mL (≈ 4.03 µM). Further, the “MIC, E. coli ATCC 25922” value against E. coli ATCC 25922 (ATCC 25922, 18 h) stood at 16 µg/mL (≈ 16.1 µM).

For LKLLKKLL-NH2 [Feleucin-K63], in the experiment on A. baumannii ATCC 19606 (ATCC 19606, 18 h), the “MIC, A. baumannii ATCC 19606” value was >128 µg/mL. Moreover, in the experiment with S. aureus ATCC 25923 (ATCC 25923, 18 h), the “MIC, S. aureus ATCC 25923” value is >128 µg/mL. Moreover, in the experiment with P. aeruginosa ATCC 27853 (ATCC 27853, 18 h), the “MIC, P. aeruginosa ATCC 27853” value turned out to be 64 µg/mL. Moreover, in the experiment on E. coli ATCC 25922 (ATCC 25922, 18 h), the “MIC, E. coli ATCC 25922” value was >128 µg/mL.

In the case of “GIGKFLHSAKKFGKAFVGEIMNS [Magainin 2, reference compound]”, the “MIC, A. baumannii ATCC 19606” value against A. baumannii ATCC 19606 (setting [1]) came out at 16 µg/mL. In addition, the “MIC, S. aureus ATCC 25923” value against S. aureus ATCC 25923 (setting [1]) is > 256 µg/mL. In the experiment on P. aeruginosa ATCC 27853 (setting [1]), the “MIC, P. aeruginosa ATCC 27853” value was found to be 256 µg/mL. Further, the “MIC, E. coli ATCC 25922” value against E. coli ATCC 25922 (setting [1]) is 64 µg/mL.

The values above are taken from paper PMC8160793, “Potent Antimicrobial and Antibiofilm Activities of Feleucin-K3 Analogs Modified by α-(4-Pentenyl)-Ala against Multidrug-Resistant Bacteria” (Biomolecules, 2021).
